Values quoted from earlier work as cited in PMC11672368 (Therapeutic Advances in Medical Oncology, 2024).

Experiments:
[1] = depot injection

degarelix
incidence of injection-site reactions [1]: ~40%

leuprolide acetate
achievement rate of serum total testosterone 0.2 ng/mL (serum testosterone): 57%

Triptorelin
elimination half-life (t1/2): 5 h
